In PMC13165350, “In Vitro Antiproliferative Effects of Benzothiazole-Based Aminosquaraine Dyes Against Cancer Cell Lines” (Molecules, 2026):

System: MCF-7 cells (breast adenocarcinoma)
Assay: cells
Type: cell-based
Details: Homo sapiens, MCF7; MTT, 72 h, 0.01–50 µM, dark conditions
Experimental: The cytotoxic effects of the aminosquaraines 1–8 were evaluated in breast (MCF-7 and T47D) and prostate (LNCaP) cancer cell lines using the MTT assay, as previously described [17]. […] Normal human dermal fibroblasts (NHDF) were included as a non-cancer model to assess tumor selectivity.
In a preliminary screening, cells were exposed to a single concentration (30 µM) of each dye for 72 h to assess metabolic activity.
The studied compounds were dissolved in dimethyl sulfoxide to prepare 10 mM stock solutions and stored at 4 °C. Working solutions were prepared from these stocks at the desired concentrations (30 µM for preliminary studies and 0.01, 0.1, 1, 10, 25, and 50 µM for concentration–response studies) by dilution in complete culture medium immediately before each experiment.
Metabolic activity was assessed by quantifying the reduction of 3-(4,5-dimethylthiazol-2-yl)-2,5-diphenyltetrazolium bromide (MTT), according to a previously described procedure [17]. […] Absorbance was recorded at 570 nm using an xMark™ microplate reader (Bio-Rad, Hercules, CA, USA) using Microplate Manager 6.3 software. Cell viability was calculated as a percentage relative to untreated control cells.
Selectivity indices were determined as the ratio between IC50 values obtained in the NHDF cell line and those obtained in the corresponding tumor cell lines.

O=c1[nH]cc(F)c(=O)[nH]1 [5-FU, 5-fluorouracil]
IC50: 1710 nM
